Reference: patent US20190183851A1, “USE OF 3,4,7-TRIHYDROXYISOFLAVONE OR 3-METHOXYDAIDZEIN IN PREPARATION OF DRUG FOR INHIBITING PLATELET AGGREGATION AND THROMBOSIS” (Kunming Institute of Zoology, Chinese Academy of Sciences, priority 2017, published 2019)

Assays:
[1] = test system: tail bleeding time of the mouse; test: evaluation of bleeding risk, tail bleeding time; type: in vivo, C57BL/6 mice; details: 80 mg/kg by gavage; 3, 6 and 12 hours after administration; mice
Procedure: This embodiment relates to an evaluation of bleeding risk of 3,4,7-trihydroxyisoflavone and 3-methoxydaidzein.
Each group included 8 male C57BL/6 (18-20 g). The test sample group and the control group were administered by gavage. After 3, 6 and 12 hours of administration, the mice were placed into a self-made special holder to make the tails pass through a trimmed 1 mL pipette tip. 5 mm of the tail tip was cut off with a sterilized razor blade, and the mouse tail was immediately immersed into normal saline at 37° C. The bleeding time of the tail was observed by using the bloodstream stop time as an indicator.

washed human platelets = test: collagen-induced platelet aggregation in washed human platelets; type: cell-based; details: 0.6 μg/mL collagen
Procedure: The collagen-induced platelet aggregation was detected by using washed human platelets. […] The platelet washing method was as follows: a. 1.4 mL platelets (concentrated platelet plasma) were poured into each 1.5 mL EP tube, and centrifuged at 400 g under room temperature for 5 min, and the supernatant was discarded; b. the platelets in each tube were resuspended with 0.5 mL of a tyrode A solution, and two tubes of resuspended platelets were combined into a new 1.5 mL EP tube, mixed well and centrifuged at 400 g under room temperature for 5 min; c. the platelets in each tube were resuspended with 1 mL of the tyrode A solution, transferred into a new EP tube, and centrifuged at room temperature at 400 g under room temperature for 5 min; d. the platelets in each tube were resuspended with 1 mL of a tyrode B solution, and the platelets were adjusted to an appropriate concentration with the tyrode B solution.

mouse-tail thrombus = test: carrageenan-induced mouse-tail thrombosis model; type: in vivo, Kunming mice; details: 24 h; for rate of thrombus inhibition versus dose: gavage 33, 100 and 300 μmol/kg; for rate of thrombus inhibition versus dose / inhibition of thrombosis in mouse tail versus negative control: carrageenan 40 mg/kg i.p.
Procedure: This embodiment relates to a carrageenan-induced mouse-tail thrombosis model.
The experiment animals, male Kunming mice, each with a body weight of 20-25 g, were randomly divided into groups (n=10) after fed for one week. The first group was a DMSO control group, the sample groups were gavaged with 3,4,7-trihydroxyisoflavone and 3-methoxydaidzein at concentrations respectively of 33, 100 and 300 μmol/kg, and the positive control was gavaged with 300 μmol/kg clopidogrel. 30 min after intragastric administration, carrageenan (type I, Sigma) was injected intraperitoneally into the mice at a dose of 40 mg/kg. Since the rate of thrombosis was >90% at a low temperature, the feeding temperature was 18° C. After 24 h, the mean length of thrombosis was determined according to the color change of the tail skin.

Healthy human platelets = test: ADP-induced platelet aggregation in PRP; type: cell-based; details: 70 μmol/L ADP; for concentration dependence of inhibition of ADP-induced platelet aggregation: FIGS. 3 and 4
Procedure: Healthy human platelets were diluted with plasma to 2.5×10^8 platelets per mL. 300 μL of plasma-rich platelets was taken, added into different concentrations of samples at 37° C. and maintained at this temperature for 5 min, then added with 70 μmol/L ADP to induce aggregation, and an aggregation curve within 5 min was plotted on a platelet aggregation instrument. Platelet aggregation without sample treatment was used as a control.
300 μM of 3-methoxydaidzein could inhibit about 50% of platelet aggregation, while 100 μM of 3,4,7-trihydroxyisoflavone could inhibit about 50% of platelet aggregation.

| Compound | tail bleeding activity versus non-administrated group (FIG. 8) [1] | tail bleeding activity versus non-administrated group (FIG. 9) [1] | concentration dependence of inhibition of collagen-induced platelet aggregation (washed human platelets; FIGS. 1 and 2) | inhibition of platelet aggregation (washed human platelets; 20 μM compound, washed human platelets) | average thrombus length compared with clopidogrel (mouse-tail thrombus; gavage 300 μmol/kg, compared with 300 μmol/kg clopidogrel) | rate of thrombus inhibition versus dose (mouse-tail thrombus) | inhibition of thrombosis in mouse tail versus negative control (mouse-tail thrombus; oral 100 μmol/kg) | concentration dependence of inhibition of ADP-induced platelet aggregation (Healthy human platelets) | inhibition at 100 µM (Healthy human platelets; Homo sapiens, Platelet, 100 μM compound) | inhibition at 20 µM (washed human platelets; Platelet, 20 μM compound, washed human platelets) | inhibition of thrombosis in mouse tail versus negative control (mouse-tail thrombus; oral 300 μmol/kg) | inhibition at 300 µM (Healthy human platelets; Homo sapiens, Platelet, 300 μM compound) |
| --- | --- | --- | --- | --- | --- | --- | --- | --- | --- | --- | --- | --- |
| COC(=O)[C@H](c1ccccc1Cl)N1CCc2sccc2C1 [clopidogrel, reference compound] | increased bleeding significantly | increased bleeding significantly | – | – | – | – | – | – | – | – | – | – |
| O=c1c(-c2ccc(O)c(O)c2)coc2cc(O)ccc12 [3,4,7-trihydroxyisoflavone] | did not show any significant bleeding activity | – | gradient-dependent manner | completely inhibit | shorter than that of the group gavaged with 300 μmol/kg of clopidogrel | increased along with the increase of concentration | significantly inhibit | gradient-dependent manner | ~50% | – | – | – |
| COc1cc(-c2coc3cc(O)ccc3c2=O)ccc1O [3-methoxydaidzein] | – | did not show any significant bleeding activity | – | – | – | increased along with the increase of concentration | – | gradient-dependent manner | – | ~50% | significantly inhibit | ~50% |
